Measured values: US10117430B2, “Malononitrile compounds for controlling animal pests” (BASF SE, priority 2012, dated 2018)

Key:
Format in all cases: in vivo
[1] = system: Cowpea Aphid (Aphis craccivora); assay: B.1 Cowpea aphid spray test on potted cowpea plants; conditions: in comparison with untreated controls, population reduction assessed after 24, 72 and 120 hours
Protocol: B.1 Cowpea Aphid (Aphis craccivora)
The active compounds were formulated in 50:50 (v/v) acetone:water. The test solution was prepared at the day of use. Potted cowpea plants colonized with approximately 100-150 aphids of various stages were sprayed after the pest population has been recorded. Population reduction was assessed after 24, 72, and 120 hours.

[2] = system: Yellow Fever Mosquito (Aedes aegypti); assay: whole plant or invertebrate; conditions: 48 h, in comparison with untreated controls, larval mortality after 2 days
Protocol: B.12 Yellow Fever Mosquito (Aedes aegypti)
For evaluating control of yellow fever mosquito (Aedes aegypti) the test unit consisted of 96-well-microtiter plates containing 200 μl of tap water per well and 5-15 freshly hatched A. aegypti larvae. The compounds or mixtures were formulated using a solution containing 75% water and 25% DMSO. Different concentrations of formulated compounds or mixtures were sprayed onto the insect diet at 2.5 μl, using a custom built micro atomizer, at two replications. After application, microtiter plates were incubated at 28±1° C., 80±5% relative humidity for 2 days. Larval mortality was then visually assessed.

[3] = system: Orchid Thrips (Dichromothrips corbetti); assay: B.4 Orchid thrips floral-immersion test; conditions: 96 h, in comparison with untreated controls, after 4 days
Protocol: B.4 Orchid Thrips (Dichromothrips Corbetti)
Dichromothrips corbetti adults used for bioassay are obtained from a colony maintained continuously under laboratory conditions. For testing purposes, the test compound is diluted to a concentration of 300 ppm (wt compound: vol diluent) in a 1:1 mixture of acetone:water (vol:vol), plus 0.01% vol/vol Kinetic® surfactant. Thrips potency of each compound is evaluated by using a floral-immersion technique. Plastic petri dishes are used as test arenas. All petals of individual, intact orchid flowers are dipped into treatment solution and allowed to dry. Treated flowers are placed into individual petri dishes along with 10-15 adult thrips. The petri dishes are then covered with lids. All test arenas are held under continuous light and a temperature of about 28° C. for duration of the assay. After 4 days, the numbers of live thrips are counted on each flower, and along inner walls of each petri dish. The level of thrips mortality is extrapolated from pre-treatment thrips numbers.

[4] = system: Rice brown plant hopper (Nilaparvata lugens); assay: B.11 Rice brown plant hopper test on sprayed rice seedlings; conditions: in comparison with untreated controls, after 72 hours
Protocol: B.11 Rice brown plant hopper (Nilaparvata lugens)
Rice seedlings were cleaned and washed 24 hours before spraying. The active compounds were formulated in 50:50 acetone:water (vol:vol) and 0.1% vol/vol surfactant (EL 620) was added. Potted rice seedlings were sprayed with 5 ml test solution, air dried, placed in cages and inoculated with 10 adults. Treated rice plants were kept at about 28-29° C. and relative humidity of about 50-60%. Percent mortality was recorded after 72 hours.

[5] = system: Green Soldier Stink Bug (Nezara viridula); assay: B.15 Green soldier stink bug test on sprayed soybean pods; conditions: 120 h, in comparison with untreated controls, after 5 days
Protocol: B.15 Green Soldier Stink Bug (Nezara viridula)
The active compound is dissolved at the desired concentration in a mixture of 1:1 (vol:vol) distilled water:aceteone. Surfactant (Kinetic HV) is added at a rate of 0.01% (vol/vol). The test solution is prepared at the day of use. Soybean pods were placed in microwavable plastic cups lined with moist filter paper and inoculated with ten 3rd instar N. viridula. Using a hand atomizer, an approximately 2 ml solution is sprayed into each cup. Treated cups were kept at about 28-29° C. and relative humidity of about 50-60%. Percent mortality was recorded after 5 days.

[6] = system: Mediterranean Fruitfly (Ceratitis capitata); assay: B.2 Mediterranean fruitfly microtiter diet test, egg and larval mortality; conditions: 120 h, in comparison with untreated controls, egg and larval mortality after 5 days
Protocol: B.2 Mediterranean Fruitfly (Ceratitis capitata)
(§1) For evaluating control of Mediterranean fruitfly (Ceratitis capitata) the test unit consisted of microtiter plates containing an insect diet and 50-80 C. capitata eggs. The compounds were formulated using a solution containing 75% v/v water and 25% v/v DMSO. Different concentrations of formulated compounds were sprayed onto the insect diet at 5 μl, using a custom built micro atomizer, at two replications. After application, microtiter plates were incubated at about 28±1° C. and about 80±5% relative humidity for 5 days. Egg and larval mortality was then visually assessed.

[7] = system: Green Peach Aphid (Myzus persicae); assay: B.3 Green peach aphid systemic test, artificial diet under membrane; conditions: 72 h, concentration of the test solution 2500 mg/L, 3 days
Text: B.3 Green Peach Aphid (Myzus persicae)
For evaluating control of green peach aphid (Myzus persicae) through systemic means the test unit consisted of 96-well-microtiter plates containing liquid artificial diet under an artificial membrane. The compounds were formulated using a solution containing 75% v/v water and 25% v/v DMSO. Different concentrations of formulated compounds were pipetted into the aphid diet, using a custom built pipetter, at two replications. After application, 5-8 adult aphids were placed on the artificial membrane inside the microtiter plate wells. The aphids were then allowed to suck on the treated aphid diet and incubated at about 23±1° C. and about 50±5% relative humidity for 3 days. Aphid mortality and fecundity was then visually assessed.

[8] = system: Silverleaf Whitefly (Bemisia argentifolii); assay: B.5 Silverleaf whitefly test on sprayed cotton plants; conditions: 72 h, in comparison with untreated controls, 3 days after treatment
Protocol: B.5 Silverleaf Whitefly (Bemisia argentifolii)
The active compounds were formulated in cyclohexanone as a 10,000 ppm solution supplied in 1.3 ml ABgene® tubes. These tubes were inserted into an automated electrostatic sprayer equipped with an atomizing nozzle and they served as stock solutions for which lower dilutions were made in 50% acetone:50% water (v/v). A nonionic surfactant (Kinetic®) was included in the solution at a volume of 0.01% (v/v). Cotton plants at the cotyledon stage (one plant per pot) were sprayed by an automated electrostatic plant sprayer equipped with an atomizing spray nozzle. The plants were dried in the sprayer fume hood and then removed from the sprayer. Each pot was placed into a plastic cup and 10 to 12 whitefly adults (approximately 3-5 days old) were introduced. The insects were collected using an aspirator and 0.6 cm, nontoxic Tygon® tubing (R-3603) connected to a barrier pipette tip. The tip, containing the collected insects, was then gently inserted into the soil containing the treated plant, allowing insects to crawl out of the tip to reach the foliage for feeding. Cups were covered with a reusable screened lid (150-micron mesh polyester screen PeCap from Tetko, Inc.). Test plants were maintained in a growth room at 25° C. and 20-40% relative humidity for 3 days, avoiding direct exposure to fluorescent light (24 hour photoperiod) to prevent trapping of heat inside the cup. Mortality was assessed 3 days after treatment, compared to untreated control plants.

[9] = system: Vetch Aphid (Megoura viciae); assay: B.7 Vetch aphid test on broad bean leaf disks; conditions: foliar, 120 h, in comparison with untreated controls, 5 days
Protocol: B.7 Vetch Aphid (Megoura viciae)
For evaluating control of vetch aphid (Megoura viciae) through contact or systemic means the test unit consisted of 24-well-microtiter plates containing broad bean leaf disks. The compounds were formulated using a solution containing 75% v/v water and 25% v/v DMSO. Different concentrations of formulated compounds were sprayed onto the leaf disks at 2.5 μl, using a custom built micro atomizer, at two replications. After application, the leaf disks were air-dried and 5-8 adult aphids placed on the leaf disks inside the microtiter plate wells. The aphids were then allowed to suck on the treated leaf disks and incubated at about 23±1° C. and about 50±5% relative humidity for 5 days. Aphid mortality and fecundity was then visually assessed.

[10] = system: Boll Weevil (Anthonomus grandis); assay: B.9 Boll weevil microtiter diet test, egg and larval mortality; conditions: 120 h, in comparison with untreated controls, egg and larval mortality after 5 days
Protocol: B.9 Boll Weevil (Anthonomus grandis)
as §1, with “of boll weevil (Anthonomus grandis)” for “of Mediterranean fruitfly (Ceratitis capitata)”, “of 24-well-microtiter” for “of microtiter”, “and 20-30 A. grandis” for “and 50-80 C. capitata”, “at 20” for “at 5”, “about 23±1°” for “about 28±1°”, “about 50±5%” for “about 80±5%”

Cc1cc(C)cc(C(C#N)(C#N)Cc2ccc(C(F)(F)F)cn2)c1 [II-47]
≥ 75%: mortality at 500 ppm [1] | mortality at 2500 ppm [2]

N#CC(C#N)(Cc1ccc(C(F)(F)F)cn1)c1cccc(F)c1F [II-49]
≥ 75%: mortality at 500 ppm [3] | mortality at 300 ppm [4] | mortality at 500 ppm [5]

N#CC(C#N)(Cc1cnc(C(F)(F)F)nc1)c1ccc(F)cc1 [II-23]
≥ 75%: mortality at 500 ppm [1] | mortality at 2500 ppm [6] | mortality at 2500 µg/mL [7] | mortality at 500 ppm [3] | mortality at 500 ppm [8] | mortality at 2500 ppm [9] | mortality at 2500 ppm [10] | mortality at 300 ppm [4] | mortality at 2500 ppm [2]

C#Cc1ccc(C(C#N)(C#N)Cc2ccc(C(F)(F)F)nc2)cc1 [II-1]
≥ 75%: mortality at 500 ppm [8] | mortality at 2500 ppm [10] | mortality at 300 ppm [4]

Cc1cccc(C(C#N)(C#N)Cc2ccc(C(F)(F)F)cn2)c1 [II-37]
≥ 75%: mortality at 2500 ppm [2]

N#CC(C#N)(Cc1ccc(C(F)(F)F)nn1)c1cccc(F)c1 [II-15]
≥ 75%: mortality at 500 ppm [1] | mortality at 2500 µg/mL [7] | mortality at 500 ppm [3] | mortality at 500 ppm [8] | mortality at 2500 ppm [10] | mortality at 2500 ppm [2]

N#CC(C#N)(Cc1ccc(C(F)(F)F)nc1)c1cc(F)cc(C(F)(F)F)c1 [II-46]
≥ 75%: mortality at 500 ppm [3] | mortality at 2500 ppm [2]

N#CC(C#N)(Cc1ccc(C(F)(F)F)cn1)c1ccccc1F [II-36]
≥ 75%: mortality at 500 ppm [8] | mortality at 2500 ppm [10] | mortality at 300 ppm [4] | mortality at 2500 ppm [2]

N#CC(C#N)(Cc1ccc(C(F)(F)F)nc1)c1ccc(Cl)cc1 [II-2]
≥ 75%: mortality at 500 ppm [1] | mortality at 500 ppm [3] | mortality at 500 ppm [8] | mortality at 2500 ppm [10] | mortality at 2500 ppm [2]

N#CC(C#N)(Cc1cnc(C(F)(F)F)cn1)c1ccc(F)cc1 [II-27]
≥ 75%: mortality at 2500 ppm [6] | mortality at 500 ppm [3] | mortality at 500 ppm [8] | mortality at 2500 ppm [9] | mortality at 2500 ppm [10] | mortality at 300 ppm [4] | mortality at 2500 ppm [2]

N#CC(C#N)(Cc1ccc(Br)cn1)c1ccc(F)cc1 [II-10, 2-[(5-bromo-2-pyridyl)methyl]-2-(4-fluorophenyl)propanedinitrile]
≥ 75%: mortality at 500 ppm [3] | mortality at 2500 ppm [10] | mortality at 300 ppm [4]

COc1cccc(C(C#N)(C#N)Cc2ccc(C(F)(F)F)cn2)c1 [II-39]
≥ 75%: mortality at 2500 µg/mL [7]

N#CC(C#N)(Cc1cnc(C(F)(F)F)nc1)c1cccc(F)c1 [II-21]
≥ 75%: mortality at 500 ppm [1] | mortality at 500 ppm [3] | mortality at 500 ppm [8] | mortality at 2500 ppm [9] | mortality at 2500 ppm [10] | mortality at 300 ppm [4] | mortality at 2500 ppm [2] | mortality at 500 ppm [5]

N#CC(C#N)(Cc1c(Cl)cncc1Cl)c1cc(F)c(F)c(F)c1 [II-66]
≥ 75%: mortality at 2500 ppm [9] | mortality at 2500 ppm [2]

Cc1cccc(CC(C#N)(C#N)c2cc(F)c(F)c(F)c2)n1 [II-65]
≥ 75%: mortality at 500 ppm [3] | mortality at 2500 ppm [10] | mortality at 300 ppm [4] | mortality at 2500 ppm [2] | mortality at 500 ppm [5]

Cc1cccc(C(C#N)(C#N)Cc2ccc(C(F)(F)F)nc2)c1 [II-22]
≥ 75%: mortality at 300 ppm [4]

N#CC(C#N)(Cc1ccc(C(F)(F)F)cn1)c1cc(C(F)(F)F)cc(C(F)(F)F)c1 [II-60]
≥ 75%: mortality at 2500 ppm [2]

N#CC(C#N)(Cc1ccc(C(F)(F)F)cn1)c1ccccc1 [II-4]
≥ 75%: mortality at 500 ppm [1] | mortality at 2500 µg/mL [7] | mortality at 500 ppm [3] | mortality at 500 ppm [8] | mortality at 2500 ppm [9] | mortality at 2500 ppm [10] | mortality at 300 ppm [4] | mortality at 2500 ppm [2] | mortality at 500 ppm [5]

N#CC(C#N)(Cc1ncc(C(F)(F)F)cn1)c1cccc(F)c1 [II-18]
≥ 75%: mortality at 2500 µg/mL [7] | mortality at 500 ppm [3] | mortality at 500 ppm [8] | mortality at 2500 ppm [9] | mortality at 2500 ppm [10] | mortality at 2500 ppm [2]

N#CC(C#N)(Cc1ccc(C(F)(F)F)nc1)c1ccccc1F [II-24]
≥ 75%: mortality at 500 ppm [3] | mortality at 500 ppm [8] | mortality at 2500 ppm [10] | mortality at 300 ppm [4] | mortality at 2500 ppm [2]

N#CC(C#N)(Cc1ccc(C(F)(F)F)nn1)c1ccccc1 [II-13]
≥ 75%: mortality at 2500 µg/mL [7] | mortality at 500 ppm [8] | mortality at 2500 ppm [10] | mortality at 2500 ppm [2]

N#CC(C#N)(Cc1ccccn1)c1ccccc1 [II-29]
≥ 75%: mortality at 2500 ppm [2]

N#CC(C#N)(Cc1ccc(F)cn1)c1ccc(F)cc1 [II-12]
≥ 75%: mortality at 500 ppm [8]

N#CC(C#N)(Cc1ccc(C(F)(F)F)nc1)c1cc(C(F)(F)F)cc(C(F)(F)F)c1 [II-54]
≥ 75%: mortality at 2500 ppm [2]
